# In paper PMC7699860 (Molecules, 2020):
# Assays:
# [1] = system: poly(A)poly(U) (RNA, polymer) A/U; assay: absorbance titration; details: Na+ (NaCl 0.1 M), NaCac 2.5 mM
# [2] = system: Tel-23 (DNA telomeric G4) (DNA, G4) TAGGGTTAGGGTTAGGGTTAGGG; assay: absorbance titration
# poly(A) (RNA, polymer) A = assay: absorbance titration; details: Na+ (NaCl 0.1 M), NaCac 2.5 mM, pH 7.0
# [3] = molecular target: T1, bovine serum albumin (BSA) (Bos taurus, UniProt P02769); assay: BSA intrinsic fluorescence quenching titration ([…] °C), […] model; no adduct by ESI-MS; format: binding
# T1 construct: gene ALB
# T1 sequence (P02769 25-607): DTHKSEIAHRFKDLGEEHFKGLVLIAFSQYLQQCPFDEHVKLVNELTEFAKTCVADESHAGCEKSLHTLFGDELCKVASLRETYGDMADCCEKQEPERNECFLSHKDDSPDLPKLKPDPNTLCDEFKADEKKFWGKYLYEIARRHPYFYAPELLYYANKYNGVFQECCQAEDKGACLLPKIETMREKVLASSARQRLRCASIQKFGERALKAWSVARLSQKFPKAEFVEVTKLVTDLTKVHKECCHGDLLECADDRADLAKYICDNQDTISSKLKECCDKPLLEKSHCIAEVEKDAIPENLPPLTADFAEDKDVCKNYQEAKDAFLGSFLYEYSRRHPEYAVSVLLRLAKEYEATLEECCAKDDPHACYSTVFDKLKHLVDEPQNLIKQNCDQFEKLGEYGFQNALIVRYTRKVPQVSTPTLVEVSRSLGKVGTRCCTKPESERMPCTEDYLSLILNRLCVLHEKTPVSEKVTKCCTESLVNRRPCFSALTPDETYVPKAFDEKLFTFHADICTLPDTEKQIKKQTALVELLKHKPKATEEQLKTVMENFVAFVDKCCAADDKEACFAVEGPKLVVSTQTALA
# [4] = system: poly(A)2poly(U) (RNA triple helix) (RNA, polymer) A/U; assay: absorbance titration; details: Na+ (NaCl 0.1 M); NaCac 2.5 mM, pH 7.0
smiles,measurement,setting,value
CCN1[C]N(Cc2c3ccccc3cc3ccccc23)C=C1.CCN1[C]N(Cc2c3ccccc3cc3ccccc23)C=C1.[Au+],binding,"[1]; pH 7.0, external binding, fit not converging",yes
same,binding,"[2]; unselective outer binding, fit not converging",yes
same,binding,"poly(A) (RNA, polymer) A; external binding, fit not converging",yes
"CCn1ccn(Cc2c3ccccc3cc3ccccc23)[c]1=[Ag]([Cl])=[c]1n(CC)ccn1Cc1c2ccccc2cc2ccccc12 [[Ag(EIA)2]Cl, bis(1-(anthracen-9-ylmethyl)-3-ethylimidazol-2-ylidene) silver chloride]","BSA intrinsic fluorescence quenching titration (15-50 °C), 1:1 model; no adduct",[3],the silver complex interacts with the protein but with a reversible weak process based on electrostatics
CCN1[C]N(Cc2c3ccccc3cc3ccccc23)C=C1.CCN1[C]N(Cc2c3ccccc3cc3ccccc23)C=C1.[Ag+],binding,[4],no
same,Kpoly(A)poly(U),"[1]; pH 7.0, 25.0 °C, apparent, per base pair, per base",(1.5 ± 3) × 10^3 M^-1
same,binding,"[2]; very slight spectral variations, conclusions state no interaction",weak
same,binding,"poly(A) (RNA, polymer) A",no
